This is an account of results in patent US10118922B2 (Janssen Pharmaceutica NV, priority 2013, dated 2018).

Each structure is given as a SMILES string.

Assay [1] relates to C57B16 mice on a high fat diet. Put plainly: GPR120 DIO mice OGTT screening. The format is in vivo, mouse. Particulars: dosed 30 min prior to glucose PO. The procedure:
18-22 week old, C57B16 mice on a high fat diet (60% HFD) for 12-16 weeks (ave. body weight ˜37-41 g) were fasted for 6 hr, with removal of food occurring at 7 am on the morning of the study. The animals were sorted into treatment groups the day before the study by body weight. Animals outside the bounds of ˜30-50 g were left out of the study. The animals had been handled and shammed a total of 5-8 days (1-3 days immediately prior to the study). Glucose (in 1 mL syringes) was drawn up the morning of the study. Test compounds were kept spinning and were only drawn into 1 ml syringes prior to study commencement. Animals were bled via tail snip to determine basal glucose levels prior to dosing of treatments. An Ascensia BREEZE Blood Glucose Monitoring System by Bayer was used for determining glucose levels.
Animals were moved into the testing room at ˜9-11 am, to yield them time to acclimate. The bleeds and dosing started at approximately 1 pm in 30-second intervals per animal. All groups were dosed 30 minutes prior to glucose administration at a dose volume of 10 ml/kg (the dose volume was calculated separately for each individual animal). Test compounds were administered at one or more of the following dosages: 0.1 mg/kg, 0.3 mg/kg, 1 mg/kg, 3 mg/kg and 10 mg/kg.
Thirty minutes after the first dose (with test compound) animals were bled again for a second baseline, or T=0, and immediately dosed with glucose (20% solution; TEKNOVA, 250 ml sterile bottle w/ catalogue number G0525) via a PO injection. The exact dose volume for glucose was also calculated separately for each individual animal.
Blood glucose was measured at 15, 30, 45, 60, and 90 minutes post-glucose administration via the snipped tail. If an animal reached a value of “HI”, the upper limit of the glucometer (600 mg/dl) was substituted as the blood glucose value and the study was analyzed as normal with no exclusions. If 50% or more of any treatment group reaches a “HI” value at least once, the study was considered invalid and repeated. Glucose values were typed into an EXCEL spreadsheet where they were used to calculate glucose AUC and delta AUC post-compound and post-glucose. The glucose excursion curves and the different versions of the AUC's were graphed in GraphPad Prism 5.
Note: All statistics completed in this study were completed using the statistical software package GraphPad Prism 5. Standard procedures for analyzing data sets from screening GPR120 compounds in DIO mouse OGTT's were as listed here below. In addition to the statistics that were run using GraphPad Prism 5, Microsoft Excel was used to calculate the percent changes in AUC from vehicle groups as detailed below.
Change from −30 to 0 BSLN Glucose, Raw Glucose AUC −30 to 90 min, Delta Glucose AUC −30 to 90 min, Raw Glucose AUC 0 to 90 min, Delta Glucose AUC 0 to 90 min were analyzed using Column Statistics Analysis, with mean values used to calculate % change from the vehicle mean group, as well as mean, SEM and/or % change from vehicle, where appropriate; and using One-Way ANOVA w/ a Tukey Post-Test (Comparing All Pairs of Columns) with each treatment group examined to see if it was statistically significant compared to vehicle (*=P<0.05, **=P<0.01, ***=P<0.001).

A further assay deals with C57bl/6J Mice. Put plainly: GPR120 C57bl6 mouse IPGTT. Particulars: 3 mg/kg, dosed 30 min prior to glucose IP 1.5 g/kg. The format is in vivo. The procedure: (§1) Male, C57bl/6J Mice were ordered in at 8 weeks of age from Jackson Labs. Individual mice weighed anywhere in the range of 25-30 grams on study day. The mice were fasted, with removal of food occurring at 7 am on the morning of the study. Animals were moved into the room at 10:00 am, to give them time to acclimate. Glucose (insulin syringes) was drawn up either the night before or the morning of the study. Glucose was dosed (IP) at 1.5 g/kg at 7.5 ml/kg (20% glucose straight TEKNOVA, 250 ml sterile bottle w/ catalogue number G0525). Test compounds were kept spinning and were only drawn into the syringes prior to study commencement. Animals were bled via tail snip to determine basal glucose levels prior to dosing of treatments. An Ascensia BREEZE Blood Glucose Monitoring System by Bayer (using unique 10-test disks) was used for determining glucose levels. The bleeds started at approximately 12:45 pm and dosing started, at 1-minute intervals, immediately after. All groups were dosed 30 minutes prior to glucose administration at a dose volume of 10 ml/kg (the dose volume was calculated separately for each individual animal). Thirty minutes after the first dose animals were bled again for a second baseline, or T=0, and immediately dosed with glucose via an i.p. injection. The exact dose volume for glucose was also calculated separately for each individual animal. Glucose measurements were taken at −30 min prior to compound dose, at t=0 (immediately prior to glucose dose), and at 15, 30, 45, 60, 90 min post glucose dose.
(§2) Glucose values were entered into an Excel sheet and graphed in GraphPad Prism. The following were calculated from Prism: Change from −30 to 0 BSLN Glucose, Raw Glucose AUC −30 to 90 min, Delta Glucose AUC −30 to 90 min, Raw Glucose AUC 0 to 90 min, Delta Glucose AUC 0 to 90 min.

A further assay has as its system C57b16 mouse. Put plainly: C57b16 mouse OGTT. Particulars: dosed 30 min prior to glucose PO 3 g/kg. It is filed as in vivo. The procedure: as §1, §2
The assay design is the same as that described above for the C57b16 mouse IPGTT. The difference is that glucose was dosed PO at 3 g/kg, 7.5 ml/kg of 40% glucose.

As for `O=C(O)CCc1cc(F)c(OCc2c(C3CCCC3)nsc2C(F)(F)F)c(F)c1` [Cpd 71, 3-(4-[[3-cyclopentyl-5-(trifluoromethyl)-1,2-thiazol-4-yl]methoxy]-3,5-difluorophenyl)propanoic acid], the “DIO Lowering Glucose AUC (−30 to 90) @ 10 mg/kg” value in assay [1] was −0.52. In the assay with C57bl/6J Mice, the “C57 IPGTT 3 mg/kg” value was −14. Moreover, in the assay on C57b16 mouse, the “C57 OGTT 3 mg/kg” value is −37.
